In patent US20240327382A1 (ALMAC DISCOVERY LIMITED, priority 2021, published 2024):
Counter-ions that a name gives are not always drawn.

Biological target: T1, Full-length USP19 (Homo sapiens, UniProt O94966)
T1 construct: Full-length USP19 was purchased from Boston Biochem (E-576); purchased Boston Biochem E-576
T1 sequence (O94966 1-1318): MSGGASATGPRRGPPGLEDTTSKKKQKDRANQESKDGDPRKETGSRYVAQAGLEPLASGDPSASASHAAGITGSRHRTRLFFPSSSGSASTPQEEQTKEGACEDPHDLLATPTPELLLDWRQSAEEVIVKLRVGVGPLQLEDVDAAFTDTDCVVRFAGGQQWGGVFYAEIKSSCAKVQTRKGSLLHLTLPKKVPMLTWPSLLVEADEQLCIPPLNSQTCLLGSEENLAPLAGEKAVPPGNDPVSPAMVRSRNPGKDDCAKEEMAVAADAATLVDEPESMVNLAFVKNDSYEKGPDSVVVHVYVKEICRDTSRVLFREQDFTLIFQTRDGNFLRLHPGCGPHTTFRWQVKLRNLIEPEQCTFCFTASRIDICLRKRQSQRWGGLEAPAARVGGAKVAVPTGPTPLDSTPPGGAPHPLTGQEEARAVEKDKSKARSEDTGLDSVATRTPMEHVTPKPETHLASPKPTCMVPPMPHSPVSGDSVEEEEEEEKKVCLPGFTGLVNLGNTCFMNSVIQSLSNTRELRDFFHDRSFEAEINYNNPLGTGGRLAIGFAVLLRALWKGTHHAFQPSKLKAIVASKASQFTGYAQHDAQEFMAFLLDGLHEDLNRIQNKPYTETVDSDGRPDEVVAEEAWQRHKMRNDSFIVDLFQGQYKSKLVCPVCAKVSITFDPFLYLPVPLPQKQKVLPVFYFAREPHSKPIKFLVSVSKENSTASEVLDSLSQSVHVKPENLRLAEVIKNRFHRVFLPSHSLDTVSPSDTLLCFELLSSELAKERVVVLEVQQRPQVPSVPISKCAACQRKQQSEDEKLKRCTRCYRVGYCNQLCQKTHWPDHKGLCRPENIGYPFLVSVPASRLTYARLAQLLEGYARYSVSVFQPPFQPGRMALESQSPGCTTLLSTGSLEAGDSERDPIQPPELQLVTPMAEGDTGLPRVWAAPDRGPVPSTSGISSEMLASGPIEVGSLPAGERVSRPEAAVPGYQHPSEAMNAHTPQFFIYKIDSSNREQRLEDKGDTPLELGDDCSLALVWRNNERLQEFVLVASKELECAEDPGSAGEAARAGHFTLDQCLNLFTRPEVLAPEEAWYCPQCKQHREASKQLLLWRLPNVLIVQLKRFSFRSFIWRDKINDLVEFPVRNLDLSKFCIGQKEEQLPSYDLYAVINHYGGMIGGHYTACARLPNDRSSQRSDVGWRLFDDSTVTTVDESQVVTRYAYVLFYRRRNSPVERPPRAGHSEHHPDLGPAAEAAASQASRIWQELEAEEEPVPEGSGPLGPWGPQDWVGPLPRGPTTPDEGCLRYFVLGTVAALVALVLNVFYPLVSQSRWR
Experiment: USP19 fluorescence polarisation (FP) assay, Ubiquitin-Lys-TAMRA substrate
Assay type: biochemical
Details: average of at least two duplicate experiments
Procedure, shortened: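 Fluorescence polarisation (excitation 530 nm, parallel and perpendicular emission at 575 nm) was recorded every 15 min for 90 min after adding the ubiquitin-Lys-TAMRA isopeptide (500 nM as dispensed). Beforehand, the full-length enzyme (2.5 nM as dispensed) sat 30 min at RT with compound diluted from 200 μM to 2 μM in HEPES pH 7.4 buffer with 150 mM NaCl, 5 mM DTT, 0.05% BSA and 0.05% CHAPS. Values normalised to uninhibited wells gave IC50s by non-linear fitting, each the mean of two or more duplicate runs.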

Compound	IC50 [nM]
CN[C@@H]1CCN(C(=O)N2CC[C@@H](Cn3cnc(-c4ccccc4)cc3=O)C3(CCCC3)C2)[C@H](c2cc(F)cc(F)c2)C1 [Example 122, 3-(((R)-7-((2S,4R)-2-(3,5-Difluorophenyl)-4-(methylamino)piperidine-1-carbonyl)-7-azaspiro[4.5]decan-10-yl)methyl)-6-phenylpyrimidin-4(3H)-one]	< 10
CN[C@@H]1CCN(C(=O)N2CC[C@@H](Cn3cnc(-c4ccccc4C)cc3=O)C3(CCCC3)C2)[C@H](c2ccc(F)c(F)c2)C1 [Example 139, 3-(((R)-7-((2S,4R)-2-(3,4-Difluorophenyl)-4-(methylamino)piperidine-1-carbonyl)-7-azaspiro[4.5]decan-10-yl)methyl)-6-(0-tolyl)pyrimidin-4(3H)-one]	< 10
CN[C@@H]1CCN(C(=O)N2CC[C@@H](CN3CC(c4ccccc4)=CC3=O)C3(CCCC3)C2)[C@H](c2cc(F)ccc2F)C1 [Example 178, 1-(((R)-7-((2S,4R)-2-(2,5-Difluorophenyl)-4-(methylamino)piperidine-1-carbonyl)-7-azaspiro[4.5]decan-10-yl)methyl)-4-phenyl-1,5-dihydro-2H-pyrrol-2-one]	10 to 100
CC(=O)N[C@@H]1CCN(C(=O)N2CC[C@@H](Cn3ccc(-c4ccccc4)cc3=O)C3(CCCC3)C2)[C@H](c2ccccc2)C1 [Example 93, N-((2S,4R)-1-((R)-10-((2-Oxo-4-phenylpyridin-1(2H)-yl)methyl)-7-azaspiro[4.5]decane-7-carbonyl)-2-phenylpiperidin-4-yl)acetamide]	10 to 100
COc1ccccc1-c1ccn(C[C@@H]2CCN(C(=O)N3CC[C@@H](N)C[C@H]3c3cccc(F)c3)CC23CCCC3)c(=O)c1 [Example 88, 1-(((R)-7-((2S,4R)-4-Amino-2-(3-fluorophenyl)piperidine-1-carbonyl)-7-azaspiro[4.5]decan-10-yl)methyl)-4-(2-methoxyphenyl)pyridin-2(1H)-one]	< 10
Cc1cc(=O)n(CC2CCN(C(=O)N3CC[C@@H](N)C[C@H]3c3ccccc3)CC23CCCC3)cn1 (stereo partly drawn) [Example 32, 3-((7-((2S,4R)-4-Amino-2-phenylpiperidine-1-carbonyl)-7-azaspiro[4.5]decan-10-yl)methyl)-6-methylpyrimidin-4(3H)-one]	10 to 100
N[C@@H]1CCN(C(=O)N2CCC(Cn3cnc4ccc(F)cc4c3=O)C3(CCCC3)C2)[C@H](c2ccccc2)C1 (stereo partly drawn) [Example 27, 3-((7-((2S,4R)-4-Amino-2-phenylpiperidine-1-carbonyl)-7-azaspiro[4.5]decan-10-yl)methyl)-6-fluoroquinazolin-4(3H)-one]	< 10
O=C(N1CCC(Cn2cnc(-c3ccccc3)cc2=O)C2(CCCC2)C1)N1CCNC[C@H]1c1cc(F)cc(F)c1 (stereo partly drawn) [Example 11, 3-((7-((R)-2-(3,5-Difluorophenyl)piperazine-1-carbonyl)-7-azaspiro[4.5]decan-10-yl)methyl)-6-phenylpyrimidin-4(3H)-one]	< 10
C[C@H]1CN(C(=O)N2CC[C@@H](Cn3cnc(-c4ccccc4)cc3=O)C3(CCCC3)C2)[C@H](c2cc(F)ccc2F)CO1 [Example 201, 3-(((R)-7-((2,5R)-5-(2,5-Difluorophenyl)-2-methylmorpholine-4-carbonyl)-7-azaspiro[4.5]decan-10-yl)methyl)-6-phenylpyrimidin-4(3H)-one]	< 10
N[C@@H]1CCN(C(=O)N2CC[C@@H](Cn3cnc(-c4ccccc4)cc3=O)C3(CCCC3)C2)[C@H](c2cc(F)cc(F)c2)C1 [Example 107, 3-[[(10R)-7-[(2S,4R)-4-amino-2-(3,5-difluorophenyl)piperidine-1-carbonyl]-7-azaspiro[4.5]decan-10-yl]methyl]-6-phenyl-pyrimidin-4-one]	< 10
O=C(N[C@@H]1CCN(C(=O)N2CC[C@@H](Cn3cnc(-c4ccccc4)cc3=O)C3(CCCC3)C2)[C@H](c2cc(F)ccc2F)C1)c1ccccn1 [Example 165, N-((2S,4R)-2-(2,5-Difluorophenyl)-1-((R)-10-((6-oxo-4-phenylpyrimidin-1(6H)-yl)methyl)-7-azaspiro[4.5]decane-7-carbonyl)piperidin-4-yl)picolinamide]	10 to 100
N[C@@H]1CCN(C(=O)N2CC[C@@H](Cn3cnc4ccc(F)cc4c3=O)C3(CCCC3)C2)[C@H](c2cc(F)cc(F)c2)C1 [Example 181, 3-(((R)-7-((2S,4R)-4-Amino-2-(3,5-difluorophenyl)piperidine-1-carbonyl)-7-azaspiro[4.5]decan-10-yl)methyl)-6-fluoroquinazolin-4(3H)-one hydrochloride]	< 10
CN[C@@H]1CCN(C(=O)N2CC[C@@H](Cn3ccc(Cl)cc3=O)C3(CCCC3)C2)[C@H](c2cc(F)ccc2F)C1 [Example 123, 4-Chloro-1-(((R)-7-((2S,4R)-2-(2,5-difluorophenyl)-4-(methylamino)piperidine-1-carbonyl)-7-azaspiro[4.5]decan-10-yl)methyl)pyridin-2(1H)-one]	< 10
O=C(N1CC[C@H](Cn2cnc(-c3ccccc3)cc2=O)C2(CCCC2)C1)N1CCNC[C@H]1c1ccccc1 (single isomer, unassigned) [Example 13]	100 to 1000
CN[C@@H]1CCN(C(=O)N2CC[C@@H](Cn3ccc(-c4ccccc4)cc3=O)C3(CCCC3)C2)[C@H](c2ccc(F)cc2F)C1 [Example 95, 1-(((R)-7-((2S,4R)-2-(2,4-Difluorophenyl)-4-(methylamino)piperidine-1-carbonyl)-7-azaspiro[4.5]decan-10-yl)methyl)-4-phenylpyridin-2(1H)-one]	< 10
O=C(O)CN[C@@H]1CCN(C(=O)N2CC[C@@H](Cn3cnc(-c4ccccc4)cc3=O)C3(CCCC3)C2)[C@H](c2cc(F)ccc2F)C1 [Example 158]	< 10
O=C(N1CC[C@@H](Cn2ccc(-c3ccccc3)cc2=O)C2(CCCC2)C1)N1CC[C@@H](NC2CS(=O)(=O)C2)C[C@H]1c1ccccc1 [Example 50, 1-(((R)-7-((2S,4R)-4-((1,1-Dioxidothietan-3-yl)amino)-2-phenylpiperidine-1-carbonyl)-7-azaspiro[4.5]decan-10-yl)methyl)-4-phenylpyridin-2(1H)-one]	10 to 100
CN[C@@H]1CCN(C(=O)N2CC[C@@H](Cn3ccc(-c4ccccc4OC)cc3=O)C3(CCCC3)C2)[C@H](c2ccccc2F)C1 [Example 118, 1-(((R)-7-((2S,4R)-2-(2-Fluorophenyl)-4-(methylamino)piperidine-1-carbonyl)-7-azaspiro[4.5]decan-10-yl)methyl)-4-(2-methoxyphenyl)pyridin-2(1H)-one]	< 10
O=C(N1CC[C@@H](Cn2cnc(-c3ccccc3)cc2=O)C2(CCCC2)C1)N1CC[C@@H](NCCF)C[C@H]1c1cccc(F)c1 [Example 196, 3-(((R)-7-((2S,4R)-4-((2-Fluoroethyl)amino)-2-(3-fluorophenyl)piperidine-1-carbonyl)-7-azaspiro[4.5]decan-10-yl)methyl)-6-phenylpyrimidin-4(3H)-one]	< 10
CN[C@@H]1CCN(C(=O)N2CC[C@@H](Cn3cnc(-c4ccccc4)cc3=O)C3(CCCC3)C2)[C@H](c2cccc(F)c2F)C1 [Example 132, 3-(((R)-7-((2S,4R)-2-(2,3-Difluorophenyl)-4-(methylamino)piperidine-1-carbonyl)-7-azaspiro[4.5]decan-10-yl)methyl)-6-phenylpyrimidin-4(3H)-one]	< 10
CN[C@H]1C[C@@H](c2ccccc2)N(C(=O)N2CC[C@@H](Cn3cnc(-c4ccccc4)cc3=O)C3(CCCC3)C2)C1 [Example 90, 3-(((R)-7-((2S,4S)-4-(Methylamino)-2-phenylpyrrolidine-1-carbonyl)-7-azaspiro[4.5]decan-10-yl)methyl)-6-phenylpyrimidin-4(3H)-one]	< 10
